Source: PubChem BioAssay AID449762 (Southern Research Specialized Biocontainment Screening …, 2010)
Results filed as inconclusive are left out.

Tested on: M. tuberculosis H37Rv growth inhibition, 7H9 media
Assay: M. tuberculosis growth inhibition, HTS (AID 449762);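 note: bacterial growth assessed after seven days of incubation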

Structure (SMILES): CC(=O)OC1=Cc2c(ccc3ccc(=O)oc23)OC1(C)C
- IC50: 14 µM
- IC90 (measured here: IC90 growth inhibition): 31.6 µM
